Assay results: publication PMC12598616, “Design and optimization of caspase-1-responsive fluorescent probes for pyroptosis imaging and anti-pyroptosis drug screening” (Chemical Science, 2025)

Target: T1, caspase-1 (Homo sapiens, UniProt P29466)
T1 sequence (P29466 120-297 limits assumed): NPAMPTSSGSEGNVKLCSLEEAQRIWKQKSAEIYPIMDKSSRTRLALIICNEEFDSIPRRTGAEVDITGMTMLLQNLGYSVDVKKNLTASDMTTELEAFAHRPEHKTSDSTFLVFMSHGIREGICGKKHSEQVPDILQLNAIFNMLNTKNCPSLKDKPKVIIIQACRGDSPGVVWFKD
T1 sequence (P29466 317-404 limits assumed): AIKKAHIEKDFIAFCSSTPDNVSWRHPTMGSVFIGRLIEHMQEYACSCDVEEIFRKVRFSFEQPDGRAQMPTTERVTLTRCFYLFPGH
Test: Sensitivity of probes for caspase-1 (fluorescence at 585 nm)
Format: biochemical
Conditions: for linear fitting range of Cas-1 concentration: fluorescence intensity at 585 nm vs Cas-1 concentration; for enhancement of fluorescence intensity at 585 nm: Cas-1 0–3 U/mL, assay buffer 50 mM HEPES, 50 mM NaCl, 0.1% chaps, 5% glycerol, 10 mM DTT, 10 mM EDTA, λex 510 nm
Description: The spectral and chemical properties of all probes were then evaluated. Upon interaction with Cas-1, the specific peptide of the probes is cleaved, leading to the disruption of the FRET process in the system and the recovery of donor fluorescence (Fig. 2a). Prior to fluorescence detection, the UV-vis absorption spectra of the probes were acquired. […] Subsequently, the sensitivity of the probes towards Cas-1 was measured in HEPES buffer (50 mM HEPES, 50 mM NaCl, 0.1% chaps, 5% glycerol, 10 mM DTT, 10 mM EDTA). […] The response differences among the probes were more intuitively observed by analyzing the standard curves of fluorescence intensity at 585 nm against the concentration of Cas-1 (Fig. 2b). […] The reaction kinetics of the probes were also measured by monitoring the fluorescence intensity of FPy1, YPy1 and WPy1 (0.5–4 μM) following incubation with Cas-1 (2 U mL^−1) (Fig. S3a–f). […] The reaction time of the probes was also investigated by monitoring the fluorescence spectra of the probes (5 μM) incubated with Cas-1 (2 U mL^−1) at various time intervals (Fig. S4a–c). […] Finally, the selectivity of the probes was evaluated. A series of potential biologically relevant interferents were selected, and the results illustrated that these interferents had no effect on the probes (Fig. S5a–c). Further selectivity validation was performed through incubating with caspase-3 (1 μg mL^−1), caspase-4 (2 U mL^−1), caspase-8 (1 μg mL^−1) from the caspase protease family. […] Therefore, FPy1 appeared to be the prime candidate for Cas-1 imaging applications. […]
Cell culture plates were sourced from Wuxi NEST Biotechnology. Recombinant human caspase-1, caspase-3, caspase-4, and caspase-8 were obtained from Abcam and MCE (Shanghai, China). Anti-cleaved caspase-1 antibody, anti-GAPDH antibody, and goat anti-Rabbit/anti-mouse lgG/HRP were purchased from CST (USA) and Beyotime […]
(Shanghai, China). […]
Medical College (ethical approval number ZJCLA-IACUC-20011003).
(also on this page, place not known: Wang,*f, Wang*abg Supplementary Information (SI) for Chemical Science. This journal is © The Royal Society of Chemistry 2025)
(1 picture or pasted object on this page, not shown here) […]
mixture was stirred for 3 h. DCM was removed under vacuum, and the residue was purified by silica gel column chromatography (DCM/MeOH, 180/1) to afford WPy1 as a dark purple solid (21 mg, 6 % yield). HRMS (ESI+): calcd […]
Analysis of probe purity by LC-MSD
Prepare dilute solutions of FPy1, YPy1 and WPy1 using chromatographic-grade acetonitrile and transfer them to sample vials. Begin with an initial mobile phase consisting of 20% acetonitrile (0.05 % formic acid) and 80% H2O (0.05 % formic acid). Over the course of 30 minutes, implement a gradient change to a mobile phase of 90% acetonitrile (0.05 % formic acid) and 10% H2O (0.05 % FA). Under the elution conditions, LC-MSD was performed on the above probe solutions and blank solvent acetonitrile.
Sensitivity of probes for caspase-1
To investigate the sensitivity of the probes for caspase-1, varying concentration of caspase-1 (0, 0.2, 0.4, 0.6, 0.8, 1.0, 1.25, 1.5, 1.75, 2, 2.5, 3 U/mL) were incubated with FPy1 (5 μM), YPy1 (5 μM) and WPy1 (5 μM) respectively in caspase-1 assay buffer (50 mM HEPES, 50 mM NaCl, 0.1 % chaps, 5 % glycerol, 10 mM DTT, 10 mM EDTA) at 37 °C for 2 hours. Fluorescence spectra were recorded using Hitachi F-2700 spectrophotometer with an excitation at 510 nm (Photomultiplier voltage 700 V; Slit widths ex: 10 nm and em =5.0 nm). The fluorescence intensity of FPy1, YPy1 and WPy1 at 585 nm were plotted against the concentration of caspase-1, and a linear regression fitted from the corresponding concentration of caspase-1, and linear regression was applied to determine the slope k. The limit of detection (LoD) was calculated from 3σ/k, in which σ represents the standard deviation of 15 blank measurements.
Various concentrations of FPy1, YPy1 and WPy1 (0.5, 1, 2, 4 μM) in 100 μL enzyme assay buffer (50 mM HEPES, 50 […]

Row | Substance | limit of detection (Cas-1, 3σ/k, σ from 15 blank measurements, probe 5 μM, 37 °C, 2 h, estimated) | fluorescence intensity at 585 nm at the same Cas-1 concentration (before maximum, compared to YPy1, probe 5 μM) | catalytic efficiency of Cas-1 for the probe (compared with YPy1, inferred from intensity at same Cas-1 concentration) | linear fitting range of Cas-1 concentration (probe 5 μM, 37 °C, 2 h) | enhancement of fluorescence intensity at 585 nm (probe 5 μM, 37 °C, 2 h)
1 | –FLTDG– [FPy1, RhoB donor, hNR quencher] | 3.7 U L^−1 | stronger fluorescence intensity at 585 nm compared to YPy1 | higher catalytic efficiency for FPy1 than YPy1 | 0–1 U mL^−1 | approximately 20.2 fold
2 | –YVADG– [YPy1, caspase-1-responsive FRET probe with recognition peptide –YVADG–; RhoB donor, hNR quencher] |  |  |  | 0–2 U mL^−1 | ~19.2 fold
